A value given as a limit tells only on which side of the number the result lay.

The first data set relates to A549 cells. The experiment in a line: Cellular proliferation/cytotoxicity assay (Alamar Blue), A549 cells. The settings on record: Homo sapiens, A549, 72 h, read-out: Anti-proliferative/Cytotoxic activity (A549 cells). Background: Resazurin is reduced to fluorescent resorufin, in cell work by metabolically active cells.
As for `c1ccc(-c2nnc(C3CCN(Cc4ccc(-c5nc6sccn6c5-c5ccccc5)cc4)CC3)[nH]2)cc1` [Example 122, 5-phenyl-6-(4-{[4-(5-phenyl-4H-1,2,4-triazol-3-yl)piperidin-1-yl]methyl}phenyl)imidazo[2,1-b][1,3]thiazole], the IC50 is less than 10 µM.
Same read-out and setting: the same measure for `c1ccc(-c2nc(C3CCN(Cc4ccc(-c5nc6ccccn6c5-c5ccncc5)cc4)CC3)n[nH]2)nc1` [Example 16, 3-pyridin-4-yl-2-(4-{[4-(5-pyridin-2-yl-1,2,4-triazol-3-yl)piperidin-1-yl]methyl}phenyl)imidazo[1,2-a]pyridine]: more than 10 µM; for `c1ccc(-c2nnc(C3CCN(Cc4ccc(-c5nc6scnn6c5-c5ccccc5)cc4)CC3)[nH]2)cc1` [Example 123, 5-phenyl-6-(4-{[4-(5-phenyl-4H-1,2,4-triazol-3-yl)piperidin-1-yl]methyl}phenyl)imidazo[2,1-b][1,3,4]thiadiazole]: less than 10 µM.
On the same count and under the same terms, the same measure for `Brc1ccc2nc(-c3ccc(CN4CCC(c5n[nH]c(-c6ccccn6)n5)CC4)cc3)c(-c3ccccc3)n2c1` [Example 6, 6-bromo-3-phenyl-2-(4-{[4-(5-pyridin-2-yl-1,2,4-triazol-3-yl)piperidin-1-yl]methyl}phenyl)imidazo[1,2-a]pyridine]: less than 10 µM; for `c1ccc(-c2c(-c3ccc(CN4CCC(c5cc(-c6ccccn6)n[nH]5)CC4)cc3)nc3ncccn23)cc1` [Example 30, 3-phenyl-2-(4-{[4-(3-pyridin-2-yl-pyrazol-5-yl)piperidin-1-yl]methyl}phenyl)imidazo[1,2-a]pyrimidine]: more than 10 µM; for `NC(=O)c1ccn2c(-c3ccccc3)c(-c3ccc(CN4CCC(c5n[nH]c(-c6ccccn6)n5)CC4)cc3)nc2c1` [Example 38, 3-phenyl-2-(4-{[4-(5-pyridin-2-yl-1,2,4-triazol-3-yl)piperidin-1-yl]methyl}phenyl)imidazo[1,2-a]pyridine-7-carboxamide]: more than 10 µM.
Still for that read-out and setting: the same measure for `Fc1cccc(-c2c(-c3ccc(CN4CCC(c5n[nH]c(-c6ccccn6)n5)CC4)cc3)nc3ccccn23)c1` [Example 14, 3-(3-fluorophenyl)-2-(4-{[4-(5-pyridin-2-yl-1,2,4-triazol-3-yl)piperidin-1-yl]methyl}phenyl)imidazo[1,2-a]pyridine]: less than 10 µM; for `Brc1cnc2nc(-c3ccc(CN4CCC(c5n[nH]c(-c6ccccn6)n5)CC4)cc3)c(-c3ccccc3)n2c1` [Example 12, 6-bromo-3-phenyl-2-(4-{[4-(5-pyridin-2-yl-1,2,4-triazol-3-yl)piperidin-1-yl]methyl}phenyl)imidazo[1,2-a]pyrimidine]: less than 10 µM.
Turning to `c1ccc(-c2c(-c3ccc(CN4CCC(c5n[nH]c(-c6ccccn6)n5)CC4)cc3)nc3ncccn23)cc1` [Example 1, 3-phenyl-2-(4-{[4-(5-pyridin-2-yl-1,2,4-triazol-3-yl)piperidin-1-yl]methyl}phenyl)imidazo[1,2-a]pyrimidine], the IC50 is more than 10 µM.
Still for that read-out and setting: the same measure for `N#Cc1ccn2c(-c3ccccc3)c(-c3ccc(CN4CCC(c5nnc(-c6ccccc6)[nH]5)CC4)cc3)nc2c1` [Example 118, 3-phenyl-2-(4-{[4-(5-phenyl-4H-1,2,4-triazol-3-yl)piperidin-1-yl]methyl}phenyl)imidazo[1,2-a]pyridine-7-carbonitrile]: less than 10 µM; for `Cc1ccn2c(-c3ccccc3)c(-c3ccc(CN4CCC(c5nnc(-c6ccccn6)[nH]5)CC4)cc3)nc2c1` [Example 50, 7-methyl-3-phenyl-2-[4-({4-[5-(pyridin-2-yl)-4H-1,2,4-triazol-3-yl]piperidin-1-yl}methyl)phenyl]imidazo[1,2-a]pyridine]: more than 10 µM.
Take `Cc1ccc2nc(-c3ccc(CN4CCC(c5nnc(-c6ccccc6)[nH]5)CC4)cc3)c(-c3ccccc3)n2n1` [Example 119, 6-methyl-3-phenyl-2-(4-{[4-(5-phenyl-4H-1,2,4-triazol-3-yl)piperidin-1-yl]methyl}phenyl)imidazo[1,2-b]pyridazine]: the IC50 is less than 10 µM.
`COc1ccc2nc(-c3ccc(CN4CCC(c5n[nH]c(-c6ccccn6)n5)CC4)cc3)c(-c3ccccc3)n2n1` [Example 32, 6-methoxy-3-phenyl-2-(4-{[4-(5-pyridin-2-yl-1,2,4-triazol-3-yl)piperidin-1-yl]methyl}phenyl)imidazo[1,2-b]pyridazine]: the IC50 is less than 10 µM.

Still in this data set, the particulars now being: read-out: Anti-proliferative/Cytotoxic activity (A549 cells); A549 cells, 72 h, Alamar Blue (Resazurin).
For the compound `N#Cc1ccn2c(-c3ccccc3)c(-c3ccc(CN4CCC(c5nnc(-c6cccs6)[nH]5)CC4)cc3)nc2c1` [Example 102, ′3-phenyl-2-[4-({4-[5-(2-thienyl)-4H-1,2,4-triazol-3-yl]piperidin-1-yl}methyl)phenyl]imidazo[1,2-a]pyridine-7-carbonitrile], the IC50 is less than 10 µM.
Same read-out and setting: the same measure for `c1ccc(-c2c(-c3ccc(CN4CCC(c5nnc(-c6ncccn6)[nH]5)CC4)cc3)nc3sccn23)cc1` [Example 81, ′5-phenyl-6-(4-{[4-(5-pyrimidin-2-yl-4H-1,2,4-triazol-3-yl)piperidin-1-yl]methyl}phenyl)imidazo[2,1-b][1,3]thiazole]: more than 10 µM.
`Cc1ccc(-c2nnc(C3CCN(Cc4ccc(-c5nc6sccn6c5-c5ccccc5)cc4)CC3)[nH]2)nc1` [Example 73, ′6-[4-({4-[5-(5-methylpyridin-2-yl)-4H-1,2,4-triazol-3-yl]piperidin-1-yl}methyl)phenyl]-5-phenylimidazo[2,1-b][1,3]thiazole]: the IC50 is less than 10 µM.
As for `Cc1ccc2nc(-c3ccc(CN4CCC(c5nnc(-c6ccco6)[nH]5)CC4)cc3)c(-c3ccccc3)n2n1` [Example 92, ′2-[4-({4-[5-(2-furyl)-4H-1,2,4-triazol-3-yl]piperidin-1-yl}methyl)phenyl]-6-methyl-3-phenylimidazo[1,2-b]pyridazine], the IC50 was less than 10 µM.
On the same count and under the same terms, the same measure for `c1ccc(-c2c(-c3ccc(CN4CCC(c5cc(-c6ccccn6)n[nH]5)CC4)cc3)nc3ccccn23)cc1` [Example 111, ′3-phenyl-2-(4-{[4-(3-pyridin-2-yl-1H-pyrazol-5-yl)piperidin-1-yl]methyl}phenyl)imidazo[1,2-a]pyridine]: less than 10 µM; for `c1ccc(-c2c(-c3ccc(CN4CCC(c5n[nH]c(-c6nccs6)n5)CC4)cc3)nc3scnn23)cc1` [Example 88, ′5-phenyl-6-[4-({4-[5-(1,3-thiazol-2-yl)-1H-1,2,4-triazol-3-yl]piperidin-1-yl}methyl)phenyl]imidazo[2,1-b][1,3,4]thiadiazole]: less than 10 µM; for `c1ccc(-c2c(-c3ccc(CN4CCC(c5nnc(-c6cccs6)[nH]5)CC4)cc3)nc3scnn23)cc1` [Example 101, ′5-phenyl-6-[4-({4-[5-(2-thienyl)-4H-1,2,4-triazol-3-yl]piperidin-1-yl}methyl)phenyl]imidazo[2,1-b][1,3,4]thiadiazole]: less than 10 µM.
Still for that read-out and setting: the same measure for `c1ccc(-c2c(-c3ccc(CN4CCC(c5nnc(-c6ccncc6)[nH]5)CC4)cc3)nc3ccccn23)cc1` [Example 58, ′3-phenyl-2-(4-{[4-(5-pyridin-4-yl-4H-1,2,4-triazol-3-yl)piperidin-1-yl]methyl}phenyl)imidazo[1,2-a]pyridine]: less than 10 µM.
Still for that read-out and setting: the same measure for `c1ccc(-c2c(-c3ccc(CN4CCC(c5nnc(-c6ccco6)[nH]5)CC4)cc3)nc3ncccn23)cc1` [Example 95, ′2-[4-({4-[5-(2-furyl)-4H-1,2,4-triazol-3-yl]piperidin-1-yl}methyl)phenyl]-3-phenylimidazo[1,2-a]pyrimidine]: more than 10 µM.

Values taken from patent publication US9387204B2, “Fused bicyclic imidazoles” (BAYER INTELLECTUAL PROPERTY GmbH, priority 2007, dated 2016).
